Laboratory results taken from PMC12320299 (Chemical Science, 2025).

Key:
[1] = system: SW480; design: method as in earlier work; conditions: 96 h incubation; ref 48 (ESI Ref. 1); cited from earlier work
[2] = system: CH1/PA-1; design: method as in Ref. 1 (ESI); conditions: 96 h incubation; ref Ref. 1 (ESI); cited from earlier work
[3] = system: SW480 cancer cells; test: Cell cycle analysis by flow cytometry (propidium iodide); assay type: cell-based, human; conditions: 24 h; 1a 12.5 to 50 nM; gemcitabine 10 nM
[4] = system: TP53; test: Immunofluorescence staining of TP53; assay type: cell-based, human; conditions: SW480, 24 h; 1a 1 μM; etoposide 100 nM
Experimental: Cell Signaling Technology (Danvers, MA, USA), respectively. Horseradish-peroxidase-linked secondary antibodies, anti-mouse IgG (Fc specific) antibody (#7076S) and anti-rabbit IgG antibody (#7074S) were purchased from Cell Signaling Technology (Danvers, MA, USA). Anti-ß-actin (AC-15) (A5441, 1:2000) was obtained from Sigma-Aldrich (St. Louis, MO, USA).
SW480 and CT26 cells were grown at a density of 6.7x10^4 cells/mL on 8-well glass coverslips (80841, ibidi GmbH, Gräfelfing, Germany) in 300 µL complete media. The next day, cells were treated with respective compounds for 24 h. Cells were fixed with 4%(v/v) paraformaldehyde for 15 min at RT, followed by washing, blocking and permeabilization with 5%(w/v) BSA and […]
(1 : 500) were diluted in 1% BSA-0.3% Triton-X-100 in PBS and incubated overnight at 4 °C.
One well was incubated without primary antibody as background control. Cells were washed and stained with secondary goat anti-mouse AlexaFlour-488 (1 : 500 dilution, A-11029, Thermo Fisher Scientific) or goat anti-rabbit AlexaFlour-488 (1 : 500 dilution, A-11034, Thermo Fisher Scientific) antibodies for 1 h at RT. Following, cells were stained with 0.2% Wheat Germ Agglutinin (WGA)-Rhodamine (RL-1022, Vector Laboratories, Inc.) and 0.1% DAPI (62248, Thermo Fisher Scientific) for staining of plasma membrane and nuclei, respectively, according to manufacturer’s recommendations. […]

Question: For `N.N.[Cl][Pt][Cl]` [cisplatin, reference compound], which IC50 [1] is on record?
Answer: 2.3 ± 0.2 µM

Question: And the IC50 [2]?
Answer: 0.073 ± 0.001 µM

Question: Which cell cycle distribution [3] does the source give for `Nc1ccn([C@@H]2O[C@H](CO)[C@@H](O)C2(F)F)c(=O)n1` [gemcitabine, reference compound] here?
Answer: G0/G1 arrest

Question: Which results are given for `O=C1C(O)=C(CN2CCOCC2)C(=O)c2ccccc21` [b, 3-morpholine naphthoquinone]?
Answer: IC50 [1]: 160 ± 30 µM; IC50 [2]: > 200 µM

Question: With `COc1cc([C@@H]2c3cc4c(cc3[C@@H](O[C@@H]3O[C@@H]5CO[C@@H](C)O[C@H]5[C@H](O)[C@H]3O)[C@H]3COC(=O)[C@H]23)OCO4)cc(OC)c1O` [etoposide, reference compound] as the compound, how does the TP53 immunofluorescence signal [4] read?
Answer: enhanced nuclear accumulation of TP53

Question: With `CCC1=C(O)C(=O)c2ccccc2C1=O` [a] as the compound, how does the IC50 [1] read?
Answer: 100 ± 10 µM

Question: And the IC50 [2]?
Answer: 173 ± 10 µM
